We go through 18 compounds from patent US4940705A, “N-substituted derivatives of 1-desoxynojirimycin and 1-desoxymannonojirimycin and pharmaceutical use” (Bayer Aktiengesellschaft, priority 1987, dated 1990).

Values after ≈ are worked out from the molar mass of the structure shown.

The test system of one data set is Visna virus. Kind of data set: Visna virus test: inhibition of virus-induced cytopathic effect / virus multiplication in infected cell cultures. As to conditions: Visna-maedi virus, 168 h, sheep fibroblast cells, 7 days at 37° C., Table 1, read-out: 2 MIC (minimum concentration at which an inhibition of virus multiplication was still observed). The class given is cell-based. Here is the method:
In cell cultures which are infected with Visna virus, pronounced virus-induced, cytopathic effects appear 5 to 10 days after infection. By treatment of the infected cell cultures with the compounds according to the invention, the appearance of these cytopathic effects could be prevented.
(§1) The Visna virus test was carried out by the method of O. Narayan et al., Journal of Infectious Diseases 135, 5, 1977, 800-806. For this, the compounds according to the invention were diluted to non-cytotoxic concentrations in culture medium in 96-well microtiter plates. Subsequently, sheep fibroblast cells (5×10^4 cells per well) in production medium were added to each well. Each well then contained 50 μl of a Visna virus solution having a titre of about 2.5×10^4TCID50 (TCID=tissue culture infectious dose). This virus dose corresponds to an MOI (multiplicity of infection) of about 0.05.
The infected and treated cells and the controlled cells were incubated for 7 days at 37° C. and 5% CO2.
On appearance of the virus-induced cytopathogenic effect in the untreated virus control, the cultures were fixed using formalin and subsequently stained with a Giemsa solution.
(§2) Herein, MCC denotes cytotoxicity and MIC denotes the minimum concentration at which an inhibition of virus multiplication was still observed.
(In general: Damage to the host cells serves as the signal in cytopathic effect assays.)

Another data set in a line: Cytotoxicity (MCC). In kind it is cell-based. As to conditions: sheep, sheep fibroblast cells; MCC denotes cytotoxicity; Table 1. Here is the method: as §1, §2

In the case of `N#Cc1cccc(NC(=O)CCN2C[C@@H](O)[C@@H](O)[C@H](O)[C@H]2CO)c1` [Example 68, N-(3-Cyanophenyl)-3-(1,5-didesoxy-1,5-imino-D-mannit-N-yl)propionamide], the MIC with Visna virus is 250 mg/L (≈ 745 µM). The same compound registered an MCC in the data set “Cytotoxicity (MCC)” of 500 µg/mL.
For `O=C(CCN1C[C@@H](O)[C@@H](O)[C@H](O)[C@H]1CO)Nc1ccc2c(c1)OCO2` [Example 72, N-(3,4-Methylenedioxyphenyl)-3-(1,5-didesoxy-1,5-imino-N-yl)propionamide], the MIC in the data set with Visna virus stood at 500 mg/L (≈ 1410 µM). Further, the MCC in the data set “Cytotoxicity (MCC)” is greater than 1000 µg/mL.
On the same counts, the results for `CCOc1ccc(NC(=O)CCN2C[C@@H](O)[C@@H](O)[C@H](O)[C@H]2CO)cc1` [Example 76, N-(4-Ethoxyphenyl)-3-(1,5-didesoxy-1,5-imino-D-mannit-N-yl)propionamide] are 500 mg/L (≈ 1410 µM) and greater than 1000 µg/mL.
`O=C(CCN1C[C@@H](O)[C@@H](O)[C@H](O)[C@H]1CO)N1CCN(c2ccc(F)cc2)CC1` [Example 82, 3-(1,5-Didesoxy-1,5-imino-D-mannit-N-yl)-propionyl-1-(4-p-fluorophenyl)piperazine]: the MIC with Visna virus worked out at 500 mg/L (≈ 1260 µM). The same compound registered an MCC in the data set “Cytotoxicity (MCC)” greater than 1000 µg/mL.
`Cc1ccc(N2CCN(C(=O)CCN3C[C@H](O)[C@@H](O)[C@H](O)[C@H]3CO)CC2)cc1` [Example 87, 3-(1,5-Didesoxy-1,5-imino-D-glucit-N-yl)-propionyl-1-(4-tolyl)piperazine]: the MIC with Visna virus was 250 mg/L (≈ 635 µM). The same compound displayed an MCC in the data set “Cytotoxicity (MCC)” greater than 1000 µg/mL.
For `O=C(CCN1C[C@H](O)[C@@H](O)[C@H](O)[C@H]1CO)NCc1ccc(C(F)(F)F)cc1` [Example 89, N-(4-Trifluoromethylbenzyl)-3-(1,5-didesoxy-1,5-imino-D-glucit-N-yl)propionamide], in that order: 500 mg/L (≈ 1270 µM) and 1000 µg/mL.
Turning to `O=C(CCN1C[C@H](O)[C@@H](O)[C@H](O)[C@H]1CO)NCC(=O)c1ccccc1` [Example 90], the MIC in the data set on Visna virus is 250 mg/L (≈ 709 µM). For the same compound, the MCC in the data set “Cytotoxicity (MCC)” is 1000 µg/mL.
In the case of `O=C(CCN1C[C@H](O)[C@@H](O)[C@H](O)[C@H]1CO)N1CCN(c2ccccc2F)CC1` [Example 92, 3-(1,5-Didesoxy-1,5-imino-D-glucit-N-yl)propionyl-1-(4-2-fluorophenyl)piperazine], in the data set on Visna virus, the MIC stood at 250 mg/L (≈ 629 µM). The compound further showed an MCC in “Cytotoxicity (MCC)” greater than 1000 µg/mL.
On the same counts, the results for `Cc1cccc(N2CCN(C(=O)CCN3C[C@H](O)[C@@H](O)[C@H](O)[C@H]3CO)CC2)c1` [Example 93, 3-(1,5-Didesoxy-1,5-imino-D-glucit-N-yl)propionyl-1-(3-methylphenyl)piperazine] are 500 mg/L (≈ 1270 µM) and greater than 1000 µg/mL.
For `O=C(CCN1C[C@H](O)[C@@H](O)[C@H](O)[C@H]1CO)N1CCN(c2ccccc2[N+](=O)[O-])CC1` [Example 94, 3-(1,5-Didesoxy-1,5-imino-D-glucit-N-yl)propionyl-1-(4-2-nitrophenyl)piperazine], in that order: 500 mg/L (≈ 1180 µM) and greater than 1000 µg/mL.
For `Cc1ccccc1N1CCN(C(=O)CCN2C[C@H](O)[C@@H](O)[C@H](O)[C@H]2CO)CC1` [Example 96, 3-(1,5-Didesoxy-1,5-imino-D-glucit-N-yl)propionyl-1-(4-2-methylphenyl)piperazine], in the data set with Visna virus, the MIC was found to be 500 mg/L (≈ 1270 µM). For the same compound, in “Cytotoxicity (MCC)”, the MCC was greater than 1000 µg/mL.
On the same counts, the results for `O=C(CCN1C[C@H](O)[C@@H](O)[C@H](O)[C@H]1CO)N1CCN(c2ncccn2)CC1` [Example 99, 3-(1,5-Didesoxy-1,5-imino-D-glucit-N-yl)-propionyl-1-(4-[2-pyrimidyl])piperazine] are 125 mg/L (≈ 328 µM) and greater than 1000 µg/mL.
On to `O=C(CCN1C[C@H](O)[C@@H](O)[C@H](O)[C@H]1CO)N1CCSCC1` [Example 100, 3-(1,5-Didesoxy-1,5-imino-D-glucit-N-yl)propionyl-1-thiomorpholide], for which the MIC with Visna virus stood at 500 mg/L (≈ 1560 µM). The MCC in “Cytotoxicity (MCC)” is greater than 1000 µg/mL.
As to `O=C(CCN1C[C@H](O)[C@@H](O)[C@H](O)[C@H]1CO)NCc1cccs1` [Example 101, N-[(Thiophen-2-yl)-methyl]-3-(1,5-didesoxy-1,5-imino-D-glucit-N-yl)propionamide], in the data set on Visna virus, the MIC came out at 125 mg/L (≈ 378 µM). In addition, the MCC in the data set “Cytotoxicity (MCC)” stood at 1000 µg/mL.
Take `C[C@H](NC(=O)CCN1C[C@H](O)[C@@H](O)[C@H](O)[C@H]1CO)c1ccccc1` [Example 102, N-[(1S)-1-Phenethyl]-3-(1,5-didesoxy-1,5-imino-D-glucit-N-yl)propionamide]: the MIC in the data set with Visna virus was 125 mg/L (≈ 369 µM). Besides, in “Cytotoxicity (MCC)”, the MCC was greater than 1000 µg/mL.
Take `C[C@@H](NC(=O)CCN1C[C@H](O)[C@@H](O)[C@H](O)[C@H]1CO)c1ccccc1` [Example 103]: the MIC in the data set on Visna virus was 125 mg/L (≈ 369 µM). The same compound displayed an MCC in “Cytotoxicity (MCC)” greater than 1000 µg/mL.
As for `CCCCNC(=O)CCN1C[C@H](O)[C@@H](O)[C@H](O)[C@H]1CO` [Example 104, N-Butyl-3-(1,5-didesoxy-1,5-imino-D-glucit-N-yl)propionamide], the MIC in the data set on Visna virus stood at 250 mg/L (≈ 861 µM). The same compound showed an MCC in “Cytotoxicity (MCC)” greater than 1000 µg/mL.
For `O=C(O)CCCN1C[C@H](O)[C@@H](O)[C@H](O)[C@H]1CO` [Example 107, 4-(1,5-Didesoxy-1,5-imino-D-glucit-N-yl)butanoic acid], in the data set with Visna virus, the MIC stood at 500 mg/L (≈ 2010 µM). The compound further had an MCC in the data set “Cytotoxicity (MCC)” greater than 1000 µg/mL.
